From patent US7879826B2, “Derivatives of [2-(8,9-dioxo-2,6-diazabicyclo[5.2.0]non-1(7)-en-2-yl)alkyl]phosphonic acid and methods of making them” (Wyeth LLC, priority 2004, dated 2011)

Key:
[1] = system: PGE2-induced thermal hypersensitivity; assay: Prostaglandin E2-induced thermal hypersensitivity (warm-water tail withdrawal); format: in vivo, Spraque-Dawley rats; details: rat, 10 mg/kg p.o., single dose; assessed 30 min after PGE2 injection
Protocol: Individually housed Spraque-Dawley rats had free access to rat chow and water. A 12-h light/12-h dark cycle was in effect (lights on from 6:00 am to 6:00 pm). Animal maintenance and research were conducted in accordance with the guidelines provided by the National Institutes of Health Committee on Laboratory Animal Resources. These subjects were used in the tests below.
The terminal 10 cm of the tail (rat) was placed into a thermos bottle containing water warmed to 38, 42, 46, 50 or 54° C. The latency in seconds for the animal to remove the tail from the water was used as a measure of nociception. […]
The ability of the compounds to reverse PGE2-induced thermal hypersensitivity was assessed using a single dose time-course procedure. […] sensitivity was assessed 30 min after PGE2 injection.
Data Analysis—The temperature that produced a half-maximal increase in the tail-withdrawal latency (i.e., T10) was calculated from each temperature-effect curve. The T10 was determined by interpolation from a line drawn between the point above and the point below 10 sec on the temperature-effect curve. […] Reversal of thermal hypersensitivity was defined as a return to baseline of the temperature-effect curve and the T10 value and was calculated according to the following equation: […]

Q: Which results are given for `CCOC(=O)c1cccc(OP(=O)(CCN2CCCNc3c2c(=O)c3=O)Oc2cccc(C(=O)OCC)c2)c1` [Example 1, Diethyl 3,3′-[({2-[8,9-dioxo-2,6-diazabicyclo[5.2.0]non-1(7)-en-2-yl]ethyl}phosphoryl)bis(oxy)]dibenzoate]?
A: reversing PGE2-induced thermal hypersensitivity (% MPE) [1]: 40%; melting point: 116 to 117 °C
